In one assay the test system is T. cruzi. As to the kind of experiment: T. cruzi growth inhibition. The conditions noted are these: read-out: (E) T. cruzi EC50. It counts as cell-based, Trypanosoma cruzi.
The next assay concerns the target T1, MetRS (T. brucei) (Trypanosoma brucei brucei, UniProt Q38C91).
T1 sequence (Q38C91 1-773): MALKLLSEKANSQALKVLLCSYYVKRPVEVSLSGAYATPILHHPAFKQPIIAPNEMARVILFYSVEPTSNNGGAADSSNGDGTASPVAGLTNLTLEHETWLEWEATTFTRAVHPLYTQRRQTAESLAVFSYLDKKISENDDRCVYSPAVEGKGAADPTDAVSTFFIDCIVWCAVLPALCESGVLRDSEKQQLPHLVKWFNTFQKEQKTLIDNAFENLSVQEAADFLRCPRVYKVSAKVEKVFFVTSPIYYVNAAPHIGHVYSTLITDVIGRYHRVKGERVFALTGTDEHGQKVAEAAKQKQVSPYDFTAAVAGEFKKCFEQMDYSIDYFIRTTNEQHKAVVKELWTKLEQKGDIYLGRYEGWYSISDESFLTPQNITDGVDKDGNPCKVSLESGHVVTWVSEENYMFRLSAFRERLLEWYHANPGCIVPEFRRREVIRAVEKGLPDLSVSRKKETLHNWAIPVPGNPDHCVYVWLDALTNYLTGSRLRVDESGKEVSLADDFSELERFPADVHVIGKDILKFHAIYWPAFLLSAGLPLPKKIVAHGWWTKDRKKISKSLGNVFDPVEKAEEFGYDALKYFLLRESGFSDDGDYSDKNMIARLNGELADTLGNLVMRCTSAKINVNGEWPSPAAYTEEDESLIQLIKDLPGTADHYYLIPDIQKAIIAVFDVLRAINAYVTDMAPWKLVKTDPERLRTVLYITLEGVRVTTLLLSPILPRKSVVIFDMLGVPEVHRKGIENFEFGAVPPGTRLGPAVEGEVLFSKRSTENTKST
Description: MetRS (T. brucei) enzyme inhibition. Type of assay: biochemical.

A further assay has as its target MetRS (C. parvum) (Cryptosporidium parvum, UniProt Q5CVN0). As to the kind of experiment: MetRS (C. parvum) enzyme inhibition. Type of assay: biochemical.
The test system of assay [1] is S. aureus MSSA (ATCC 29213). Description: MIC susceptibility testing. It counts as cell-based, Staphylococcus aureus. The conditions noted are these: Staphylococcus aureus, S. aureus ATCC 29213; read-out: (F) S. aureus (ATCC 29213) MIC. An excerpt: (§1) Media and culture conditions. Mueller Hinton broth (MHB), cation adjusted Mueller Hinton broth (CA-MHB), and Brain Heart Infusion broth (BHI) were purchased from Becton Dickinson (Franklin Lakes, N.J.). Tryptic soy agar (TSA) plates, TSA with 5% sheep blood plates, and CA-MHB with 3% laked horse blood were purchased from Remel (San Diego, Calif.). MHB was used to assay all Staphylococcus aureus strains. CA-MHB was used for Staphylococcus epidermidis, Enterococcus faecalis, Enterococcus faecium, Escherichia coli, and Pseudomonas aeruginosa. CA-MHB supplemented with 3% laked horse blood was used for Streptococcus pneumoniae and Streptococcus pyogenes. Staphylococcus, Enterococcus, Escherichia, and Pseudomonas strains were cultured at 37° C. with ambient air. Streptococcus strains were cultured in 37° C. with 5% CO2. Separate conditions for radiolabeled precursor uptake assays are described below.
(§2) Susceptibility testing: Minimum inhibitory concentration (MIC) determinations were performed in triplicate in 96-well round bottom microtiter plates (Corning, Corning N.Y.) as described by the Clinical and Laboratory Standards Institute (CLSI). Serial two-fold dilutions of compounds were added to plates in 50 μL volumes. An additional 50 μL of media containing bacterial cells (1×10^6 CFUs/mL) was then added to each well. Maximum DMSO concentrations were 0.5%. Plates were incubated at 37° C. for at least 18 h before reading the susceptibility result by optical absorbance (OD600) using a BioTek ELx800. The lowest concentration causing ≥90% growth inhibition compared to the untreated control was recorded as the MIC (and also corresponded to the visual MIC). MICs were measured at least twice and the higher value (if different) was recorded herein.

The test system of another assay is C. parvum. Description: C. parvum growth inhibition. Type of assay: cell-based, Cryptosporidium parvum. The conditions noted are these: read-out: (J) C. parvum EC50.
In the next assay the test system is T. brucei. As to the kind of experiment: T. brucei growth inhibition. The settings on record: read-out: (D) T. brucei EC50. It counts as cell-based, Trypanosoma brucei.
Assay [2] has as its system S. aureus MRSA (ATCC 33591). As to the kind of experiment: MIC susceptibility testing. Type of assay: cell-based, Staphylococcus aureus. The settings on record: Staphylococcus aureus, MRSA ATCC33591; read-out: (G) MRSA (ATCC33591) MIC.
Source text: as §1, §2

The mark [3] stands for this setting: read-out: (C) MetRS (C. parvum) IC50.

Structures are written as SMILES. In brackets after ≈: the same amount, converted by molar mass. Several values for one entry are separate records, joined by “and”; a condition that tells them apart may be missing. Identical values can stand only once. Like-named read-outs stand apart in the source and are kept apart here.

Sequence of MetRS (C. parvum) (Q5CVN0 entry or part of it): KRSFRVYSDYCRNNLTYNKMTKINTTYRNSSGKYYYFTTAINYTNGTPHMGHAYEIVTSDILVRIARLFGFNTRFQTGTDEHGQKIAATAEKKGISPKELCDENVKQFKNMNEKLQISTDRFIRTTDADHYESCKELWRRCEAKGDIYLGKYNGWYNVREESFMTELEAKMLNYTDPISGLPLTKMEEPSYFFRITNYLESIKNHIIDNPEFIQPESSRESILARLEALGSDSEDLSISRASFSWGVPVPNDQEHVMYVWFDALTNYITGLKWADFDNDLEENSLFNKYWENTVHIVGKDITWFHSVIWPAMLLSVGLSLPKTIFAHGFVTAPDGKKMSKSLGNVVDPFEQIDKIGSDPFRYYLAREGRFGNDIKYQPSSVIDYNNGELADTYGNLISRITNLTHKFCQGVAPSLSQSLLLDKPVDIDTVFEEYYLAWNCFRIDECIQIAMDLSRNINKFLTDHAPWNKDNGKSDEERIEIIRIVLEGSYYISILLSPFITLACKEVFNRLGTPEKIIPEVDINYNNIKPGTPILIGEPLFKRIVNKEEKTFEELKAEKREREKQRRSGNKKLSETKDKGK

For orientation: EC50 means the concentration at which the effect is half-maximal. As usually defined, the IC50 is the concentration needed to halve the response being measured. For orientation: MIC means the lowest concentration that inhibits growth of the organism. For the compound `O=c1n(Cc2nc3ccc(F)nc3[nH]2)cc(Cc2ccc(Cl)cc2Cl)n1C1CCCCC1` [Compound 2071, 3-cyclohexyl-4-[(2,4-dichlorophenyl)methyl]-1-({5-fluoro-1H-imidazo[4,5-b]pyridin-2-yl}methyl)-2,3-dihydro-1H-imidazol-2-one], the figures for the EC50 in the assay on T. cruzi (Trypanosoma cruzi) and in the assay with C. parvum (Cryptosporidium parvum) were 526 nM and over 2000 nM, respectively. For the same compound, the concentration for half-maximal inhibition (IC50) on MetRS (T. brucei) and on MetRS (C. parvum) (setting [3]) was under 40 nM in each case. For the same compound, in assay [1], the minimum inhibitory concentration (MIC) is over 2.5 µg/mL.
On to `C#CCn1c(Cc2ccc(Cl)cc2Cl)cn(Cc2nc3ccc(F)nc3[nH]2)c1=O` [Compound 2085, 4-[(2,4-dichlorophenyl)methyl]-1-({5-fluoro-1H-imidazo[4,5-b]pyridin-2-yl}methyl)-3-(prop-2-yn-1-yl)-2,3-dihydro-1H-imidazol-2-one], for which the EC50 in the assay with T. cruzi (Trypanosoma cruzi) stood at 514 nM; in the assay with T. brucei (Trypanosoma brucei), 4.56 nM; in the assay with T. brucei it was 9.03 nM; with C. parvum (Cryptosporidium parvum), 834 nM; in the assay with C. parvum, 683 nM. For the same compound, the concentration for half-maximal inhibition (IC50) against MetRS (T. brucei) and at MetRS (C. parvum) (setting [3]) was under 40 nM in each case. Further, in assay [1], the MIC was 1.71 µg/mL (≈ 3.97 µM).
As for `COc1ccc(-c2cnn3c2CN(Cc2nc4nc(F)ccc4[nH]2)CC3)c(Cl)c1` [Compound 2170, 2-((3-(2-chloro-4-methoxyphenyl)-6,7-dihydropyrazolo[1,5-a]pyrazin-5(4H)-yl)methyl)-5-fluoro-1H-imidazo[4,5-b]pyridine], the 50% effective concentration (EC50) in the assay on T. cruzi (Trypanosoma cruzi) is 1330 nM; with T. brucei (Trypanosoma brucei), 64.5 nM; with C. parvum (Cryptosporidium parvum), 1780 nM. Also, the IC50 against MetRS (T. brucei) and on MetRS (C. parvum) (setting [3]) was under 40 nM throughout.
With `COc1ccc(-c2ccc(NC(C)=O)c3nc(Cc4nc5nc(F)ccc5[nH]4)cn23)c(Cl)c1` [Compound 2183, N-[5-(2-chloro-4-methoxyphenyl)-2-({5-fluoro-1H-imidazo[4,5-b]pyridin-2-yl}methyl)imidazo[1,2-a]pyridin-8-yl]acetamide], the EC50 is 116 nM in the assay with T. cruzi (Trypanosoma cruzi) and 629 nM in the assay with C. parvum (Cryptosporidium parvum). Also, the half-inhibitory concentration (IC50) at MetRS (T. brucei) and on MetRS (C. parvum) (setting [3]) was under 40 nM in each case. Besides, the minimal inhibitory concentration (MIC) in assay [1] stood at 0.245 µg/mL (≈ 0.527 µM).
In the case of `Clc1ccc(Cc2cn(Cc3nc4cc(Cl)ccc4[nH]3)cn2)c(Cl)c1` [Compound 2192, 6-chlor0-2-({4-[(2,4-dichlorophenyl)-methyl]-1H-imidazol-1-yl}methyl)-1H-1,3-benzodiazole], the EC50 in the assay with T. cruzi (Trypanosoma cruzi) is 516 nM; in the assay with T. brucei (Trypanosoma brucei) it was 85.2 nM; with C. parvum (Cryptosporidium parvum) it was over 2000 nM. Besides, the half-maximal inhibitory concentration (IC50) against MetRS (T. brucei) is under 40 nM; on MetRS (C. parvum) it was 114 nM.
Take `COc1ccc(Cc2cn(Cc3nc4nc(Cl)ccc4[nH]3)c(=O)n2CC(C)(C)NC(C)=O)c(Cl)c1` [Compound 2209, N-{1-[3-({5-chloro-1H-imidazo[4,5-b]pyridin-2-yl}methyl)-5-[(2-chloro-4-methoxyphenyl)methyl]-2-oxo-2,3-dihydro-1H-imidazol-1-yl]-2-methylpropan-2-yl}acetamide]: the results for the 50% effective concentration (EC50) in the assay with T. cruzi (Trypanosoma cruzi) and in the assay with C. parvum (Cryptosporidium parvum) were 4620 nM and over 2000 nM, respectively. The half-maximal inhibitory concentration (IC50) against MetRS (T. brucei) is 380 nM and 781 nM.
Take `NCCn1c(Cc2ccc(Cl)cc2Cl)cn(Cc2nc3ccc(Cl)nc3[nH]2)c1=O` [Compound 2214, 3-(2-aminoethyl)-1-((5-chloro-3H-imidazo[4,5-b]pyridin-2-yl)methyl)-4-(2,4-dichlorobenzyl)-1,3-dihydro-2H-imidazol-2-one]: the EC50 was 367 nM in the assay with T. cruzi (Trypanosoma cruzi), 3.73 nM in the assay with T. brucei (Trypanosoma brucei) and over 2000 nM in the assay on C. parvum (Cryptosporidium parvum). Besides, the values for the half-inhibitory concentration (IC50) on MetRS (T. brucei) and on MetRS (C. parvum) (setting [3]) were under 40 nM and 74.5 nM, respectively. Moreover, the minimal inhibitory concentration (MIC) in assay [1] is over 2.5 µg/mL.
Regarding `O=C(O)Cn1c(C(=O)c2ccc(Cl)cc2Cl)cn(Cc2nc3ccc(Cl)nc3[nH]2)c1=O` [Compound 2216, 2-[3-({5-chloro-1H-imidazo[4,5-b]pyridin-2-yl}methyl)-5-(2,4-dichlorobenzoyl)-2-oxo-2,3-dihydro-1H-imidazol-1-yl]acetic acid], the half-maximal effective concentration (EC50) is over 5000 nM with T. cruzi (Trypanosoma cruzi), 287 nM with T. brucei (Trypanosoma brucei) and over 2000 nM with C. parvum (Cryptosporidium parvum). The results for the IC50 against MetRS (T. brucei) and on MetRS (C. parvum) (setting [3]) were under 40 nM and 53.2 nM, respectively.
In the case of `COc1ccc(-c2nccn3c(=O)n(Cc4nc5c(Cl)c(Cl)ccc5[nH]4)cc23)c(Cl)c1` [Compound 2254, 8-(2-chloro-4-methoxyphenyl)-2-[(6,7-dichloro-1H-1,3-benzodiazol-2-yl)methyl]-2H,3H-imidazo[1,5-a]pyrazin-3-one], the half-inhibitory concentration (IC50) at MetRS (C. parvum) (setting [3]) was 138 nM. Also, the MIC in assay [2] was over 2 µg/mL. Also, the concentration giving a half-maximal response (EC50) with T. brucei (Trypanosoma brucei) was 168 nM.
For `COc1ccc(Cc2cn(Cc3nc4nc(Cl)ccc4[nH]3)c(=O)n2CC(F)F)c(Cl)c1` [Compound 2258, 1-({5-chloro-1H-imidazo[4,5-b]pyridin-2-yl}methyl)-4-[(2-chloro-4-methoxyphenyl)methyl]-3-(2,2-difluoroethyl)-2,3-dihydro-1H-imidazol-2-one], the EC50 in the assay on T. cruzi (Trypanosoma cruzi) is 5.39 nM; with T. cruzi it was 5.96 nM; in the assay on T. brucei (Trypanosoma brucei), under 0.91 nM; in the assay on T. brucei it was 1.35 nM; in the assay on C. parvum (Cryptosporidium parvum), 188 nM; in the assay with C. parvum, 193 nM. Moreover, in assay [1], the MIC was 0.415 µg/mL (≈ 0.886 µM).
For the compound `CCn1c(Cc2ccc(Cl)cc2Cl)cn(Cc2nc3ccc(F)c(F)c3[nH]2)c1=O` [Compound 2262, 4-[(2,4-dichlorophenyl)methyl]-1-[(6,7-difluoro-1H-1,3-benzodiazol-2-yl)methyl]-3-ethyl-2,3-dihydro-1H-imidazol-2-one], the EC50 in the assay with T. cruzi (Trypanosoma cruzi) was found to be 126 nM; with T. brucei (Trypanosoma brucei), 18.9 nM; with T. brucei, 25.6 nM; in the assay on C. parvum (Cryptosporidium parvum), 1500 nM. The MIC in assay [1] was determined as 0.557 µg/mL (≈ 1.27 µM).
On the same counts, the results for `O=c1n(Cc2nc3c(F)c(F)ccc3[nH]2)cc(Cc2ccc(Cl)cc2Cl)n1CC(F)F` [Compound 2263, 4-[(2,4-dichlorophenyl)methyl]-1-[(6,7-difluoro-1H-1,3-benzodiazol-2-yl)methyl]-3-(2,2-difluoroethyl)-2,3-dihydro-1H-imidazol-2-one] are 366 nM, 64.4 nM, 69.1 nM, over 2000 nM and 3.29 µg/mL (≈ 6.95 µM).
On the same counts, the results for `O=c1n(Cc2nc3c(F)c(F)ccc3[nH]2)cc(Cc2ccc(Cl)cc2Cl)n1CC1CCNCC1(F)F` (stereo not shown) [Compound 2264, 5-(2,4-dichlorobenzyl)-3-((4,5-difluoro-1H-benzo[d]imidazol-2-yl)methyl)-1-((3,3-difluoropiperidin-4-yl)methyl)-1H-imidazol-2(3H)-one] are 133 nM, 39.9 nM, 73.1 nM, over 2000 nM and 1.22 µg/mL (≈ 2.25 µM).
On to `CC(=O)N1CCC(Cn2c(Cc3ccc(Cl)cc3Cl)cn(Cc3nc4nc(F)ccc4[nH]3)c2=O)C(F)(F)C1` (stereo not shown) [Compound 2265, 3-[(1-acetyl-3,3-difluoropiperidin-4-yl)methyl]-4-[(2,4-dichlorophenyl)methyl]-1-({5-fluoro-1H-imidazo[4,5-b]pyridin-2-yl}methyl)-2,3-dihydro-1H-imidazol-2-one], for which the figures for the EC50 in the assay on T. cruzi (Trypanosoma cruzi) and in the assay with C. parvum (Cryptosporidium parvum) were 325 nM and 1840 nM, respectively. Moreover, the MIC in assay [1] was 1.62 µg/mL (≈ 2.86 µM).
